Tests used:
[1] = Hygroscopicity by dynamic vapor sorption (DVS); assay type: physicochemical; details: 25° C.
Experimental: A quantity of the crystalline material was analyzed by dynamic vapor sorption (DVS). The sample was subjected to a ramping profile from 40-90% RH at 10% increments, maintaining the sample at each step until a stable weight had been achieved at 25° C. After completion of the sorption cycle, the sample was dried using the same procedure to 0% RH followed by a second sorption cycle back to 40% RH. Two cycles were performed overall. The weight change during the sorption/desorption cycles were plotted, allowing for the hygroscopic nature of the sample to be determined. Significant hysteresis was observed, with the material retaining much larger quantities of water during the second sorption cycle as shown in FIG. 10. […] The amount of water in the sample at 90% relative humidity corresponds to the pentahydrate of the material.

[2] = Stability of crystalline material on storage (HPLC and XRPD); assay type: physicochemical; details: for purity by HPLC after storage: decrease from 99%
[3] = 40° C. at 75% relative humidity (RH) for one week

hygroscopic nature ([1]; DVS): hygroscopic | increase of water (weight) by DVS ([1]; at 90% relative humidity relative to 0% relative humidity): 13.2 % wt. | crystallinity after storage ([2]; 25° C. at 60% relative humidity (RH) for one week): no change in crystallinity | solid form by XRPD after storage [2, 3]: conversion to the amorphous material | purity by HPLC after storage [2, 3]: 97.3% | morphology by XRPD after storage ([2]; 80° C. for one week): no change in morphology | purity by HPLC after storage ([2]; 80° C. for one week): 97.4%
Structure (SMILES): C[C@H](Nc1cc(Cl)nc2c1cnn2[C@@H]1O[C@H](COP(=O)(O)CP(=O)(O)O)[C@@H](O)[C@H]1O)c1ccccc1F [crystalline material, [({[(2R,3S,4R,5R)-5-(6-chloro-4-{[(1S)-1-(2-fluorophenyl)ethyl]amino}-1H-pyrazolo[3,4-b]pyridin-1-yl)-3,4-dihydroxyoxolan-2-yl]methoxy}(hydroxy)phosphoryl)methyl]phosphonic Acid]
XRPD of the sample post-DVS ([1]; after two sorption/desorption cycles, 0-90% RH): loss of crystallinity and regeneration of amorphous material

Reference: patent US11819512B2, “Solid forms of a CD73 inhibitor and the use thereof” (ARCUS BIOSCIENCES, INC., priority 2018, dated 2023)
